1 compound from publication PMC5867665, “Targeting Multiple Effector Pathways in Pancreatic Ductal Adenocarcinoma with a G-Quadruplex-Binding Small Molecule” (Journal of Medicinal Chemistry, 2018) can be followed below.

Bounds are passed on as bounds.

In data set [1] the test system is fetal lung fibroblast-like nononcogenic control cell line (WI-38). The experiment in a line: 96 h SRB growth inhibition assay, WI-38. The class given is cell-based, human. As to the method:
Compounds were screened with a 96 h SRB (sulforhodamine B) assay for their antiproliferative activity in a panel of human cancer cell lines comprising lung adenocarcinoma (A549), breast adenocarcinoma (MCF7), and PDAC (MIA PaCa-2 and PANC-1) cell lines, as well as a fetal lung fibroblast-like nononcogenic control cell line (WI-38) (Figure 1f). […] Gemcitabine is also active in these lines at low nanomolar levels, although less so in MIA PaCa-2 (IC50 19 ± 5 nM) and more so in BX-PC3 cells (6 ± 2 nM).
All cell lines were purchased from ATCC and maintained in appropriate medium supplemented with 10% fetal bovine serum (Invitrogen, UK), 2 mM L-glutamine (Invitrogen, Netherlands), and other components as specified by the suppliers. Cell lines were maintained at 37 °C, 5% CO2, and routinely passaged. Drugs were dissolved in H2O and filtered through 0.22 μm pore-size filter units (stock 10 mM) before addition to appropriate cell line media. Cellular growth inhibition was measured using the sulforhodamine B (SRB) assay in 96-well plates as described previously.[78] The 50% inhibitory concentrations (IC50) were determined by taking the mean absorbance at 540 nm for each drug concentration expressed as a percentage of the absorbance of untreated control wells.

For the next data set, the system named is PANC-1 cells. In words: BG4 and 53BP1 immunofluorescence microscopy. The class given is cell-based, human. The text has this:
Because many established G4-stabilizing ligands induce transcription and replication-coupled DNA damage in the vicinity of G4-forming sequences,[44] we investigated whether CM03 treatment affects cellular G4 occurrence and/or induces a DNA damage response. To do this, we treated asynchronous PANC-1 cells with CM03 and performed immunofluorescence staining using the G4-specific antibody BG4[18] and an antibody against the DNA damage and double-strand break (DSB) marker 53BP1[45] followed by 3D image construction and analysis. […] This further confirms that CM03 has a direct action at G4 sites to increase G4 stabilization. Consistent with the capability of unresolved endogenous genomic G4 sites[46] and small molecule-stabilized G4s to obstruct DNA replication,[44] a 2-fold increase in the number of 53BP1 foci was only apparent after 24 h treatment with CM03 (11 ± 2 compared to 21 ± 3 53BP1 foci) (Figure 4a,c). To determine if CM03 induced DNA damage directly at G4 sites, we calculated the extent of co-localization between BG4 and 53BP1 foci using object-based image co-localization analysis.
BG4 and 53BP1 immunofluorescence experiments were performed essentially as described,[16],[18] with slight modifications. In brief, 8 × 10^4 PANC-1 cells were seeded overnight on circular no. 1.5 coverslips per well in 12-well plates. Next day, cells were incubated with 400 nM CM03 (or left untreated) in 1 mL of media at 37 °C for 6 and 24 h and then fixed with 4 (v/v) % freshly prepared paraformaldehyde in 1× PBS for 10 min at RT. Coverslips were washed 1× PBS, permeabilized with 0.1% (v/v) Triton-X100 in PBS for 10 min, washed with 1× PBS, and blocked with 2% (w/v) Marvel milk (Premier Foods plc) in PBS for 1 h at 37 °C. After blocking, coverslips were incubated with BG4 (20 nM) at 37 °C for 1 h, washed three times for 5 min with PBST (0.1% (v/v) Tween 20), and then incubated with 37 °C for 1 h with rabbit α-FLAG 1:800 (CST, catalogue no. 2368) and mouse α-53BP1 1:500 (Millipore, catalogue no. MAB2803). […] Fluorescence illumination was with a xenon source and FITC, Cy5, and DAPI fluorescent filter cubes used to image BG4, 53BP1, and the nuclei, respectively. […] See extended methods, immunofluorescence, for the custom protocol designed for the BG4-53BP1 foci quantification and co-localization method. […]
For the putative G4 sequences (PQs) analysis, the occurrence of the canonical G4 motif (G≥3N1-7G≥3+N1-7G3≥N1-7G≥3), as previously defined 2,3, was calculated both in gene promoters (defined as 2 kilobases upstream of the transcription start site (TSS) and 100 bases downstream ) and gene bodies (exons and introns). […]

A short description of data set [2]: Aqueous solubility and pH of the salt. Type of data set: physicochemical. The text has this:
The synthetic approach to the trisubstituted series adapts previously published procedures to simplify purification and increase yields of both intermediates and final compounds (Scheme 1). 5,5-Dimethyl-1,3-dibromohydantoin was used for the regioselective bromination of the starting material, enabling more efficient and convenient purification. The separation of final products was achieved using column chromatography, giving a 26% overall yield for CM03.
CM03 was then converted to a mixed hydrochloride/formate salt in order to enhance its aqueous solubility. At a concentration of 5 mg/mL, the pH of the CM03 salt solution was 6.95.

With `O=C1c2ccc3c4c(c(NCCN5CCCC5)cc(c24)C(=O)N1CCCN1CCOCC1)C(=O)N(CCCN1CCOCC1)C3=O` [CM03, 2,7-bis(3-morpholinopropyl)-4-((2-(pyrrolidin-1-yl)ethyl)amino)benzo[lmn][3,8]phenanthroline-1,3,6,8(2H,7H)-tetraone], the “less activity toward the WI-38 cell line (vs MM41)” value in data set [1] is reported as over 4 fold. In addition, the “number of nuclear BG4 foci” value in the data set on PANC-1 cells (400 nM CM03, 6 h) turned out to be 393 ± 13. For the same compound, in the data set on PANC-1 cells (400 nM CM03, 24 h), the “number of 53BP1 foci” value stood at 21 ± 3, the “number of nuclear BG4 foci” value was found to be 444 ± 39 and the “total BG4 foci per nucleus associated with DNA damage foci” value is reported as 1.4%. Besides, in data set [2], the “pH of mixed chloride/formate salt” value came to 6.9. In data set [2] (concentration of 5 mg/mL, mixed hydrochloride/formate salt), the “pH of the CM03 salt solution” value came out at 6.95.
